Test results published in article PMC5392334, “Discovery and characterization of a novel irreversible EGFR mutants selective and potent kinase inhibitor CHMFL-EGFR-26 with a distinct binding mode” (Oncotarget, 2017).

Tests used:
MST3 = target: T1, MST3 (Homo sapiens, UniProt Q9Y6E0); experiment: KinomeScan; assay type: binding; settings: read-out: % control
T1 construct: purchased DiscoveRx KINOMEscan

CDK2 = target: T2, CDK2 (Homo sapiens, UniProt P24941); experiment: KinomeScan; assay type: binding; settings: read-out: % control
T2 construct: purchased DiscoveRx KINOMEscan

PIK3CG = target: T3, PIK3CG (Homo sapiens, UniProt P48736); experiment: KinomeScan; assay type: binding; settings: read-out: % control
T3 construct: purchased DiscoveRx KINOMEscan

ERK5 = target: T4, ERK5 (Homo sapiens, UniProt Q13164); experiment: KinomeScan; assay type: binding; settings: read-out: % control
T4 construct: purchased DiscoveRx KINOMEscan

STK36 = target: T5, STK36 (Homo sapiens, UniProt Q9NRP7); experiment: KinomeScan; assay type: binding; settings: read-out: % control
T5 construct: purchased DiscoveRx KINOMEscan

PRKG1 = target: T6, PRKG1 (Homo sapiens, UniProt Q13976); experiment: KinomeScan; assay type: binding; settings: read-out: % control
T6 construct: purchased DiscoveRx KINOMEscan

H1975 (EGFRL858R/T790M) = experiment: Anti-proliferation, NSCLC cell lines (CellTiter-Glo); assay type: cell-based, human
Protocol: The human cancer cell lines H1975, HCC827, H2122, CHO, CHL and H1355 were purchased from the American Type Culture Collection (ATCC) (Manassas, VA, USA). PC9 cell line was purchased from the Sigma-Aldrich (St. Louis, MO, USA). A549, H3255 were purchased from Cobioer Biosciences CO., LTD (Nanjing, China). […] A549 and H1355 were cultured in F-12K Nutrient Mixture (kaighn's Modification) (Gibco, USA) with 10% FBS and supplemented with 2% L-glutamine and 1% pen/strep. H3255 was cultured in BEGM media (LONZA, USA) with 10% FBS and supplemented with 2% L-glutamine and 1% pen/strep.

CHO = experiment: Anti-proliferation, normal cells (CellTiter-Glo); settings: Cricetulus griseus, 72 h
Protocol: Cells were grown in 96-well culture plates (2500-3000/well). For adherent cell lines, compounds of various concentrations were added into the plates after cells were cultured for 12 hours. Cell proliferation was determined after treatment with compounds for 72 hours. Cell viability was measured using the CellTiter–Glo assay (Promega, USA) according to the manufacturer's instructions, and luminescence was measured in a multi-label reader (Envision, PerkinElmer, USA). Data were normalized to control groups (DMSO) and represented by the mean of three independent measurements with standard error <20%. GI50 values were calculated using Prism 5.0 (GraphPad Software, San Diego, CA).

CLK4 = target: T7, CLK4 (Homo sapiens, UniProt Q9HAZ1); experiment: KinomeScan; assay type: binding; settings: read-out: % control
T7 construct: purchased DiscoveRx KINOMEscan

TNIK = target: T8, TNIK (Homo sapiens, UniProt Q9UKE5); experiment: KinomeScan; assay type: binding; settings: read-out: % control
T8 construct: purchased DiscoveRx KINOMEscan

EPHB3 = target: T9, EPHB3 (Homo sapiens, UniProt P54753); experiment: KinomeScan; assay type: binding; settings: read-out: % control
T9 construct: purchased DiscoveRx KINOMEscan

NEK3 = target: T10, NEK3 (Homo sapiens, UniProt P51956); experiment: KinomeScan; assay type: binding; settings: read-out: % control
T10 construct: purchased DiscoveRx KINOMEscan

GRK1 = target: T11, GRK1 (Homo sapiens, UniProt Q15835); experiment: KinomeScan; assay type: binding; settings: read-out: % control
T11 construct: purchased DiscoveRx KINOMEscan

[1] = target: T12, JAK3(JH1domain-catalytic) (Homo sapiens, UniProt P52333); experiment: KinomeScan; assay type: binding; settings: read-out: % control
T12 construct: JAK3(JH1domain-catalytic); purchased DiscoveRx KINOMEscan

FGR = target: T13, FGR (Homo sapiens, UniProt P09769); experiment: KinomeScan; assay type: binding; settings: read-out: % control
T13 construct: purchased DiscoveRx KINOMEscan

CAMKK1 = target: T14, CAMKK1 (Homo sapiens, UniProt Q8N5S9); experiment: KinomeScan; assay type: binding; settings: read-out: % control
T14 construct: purchased DiscoveRx KINOMEscan

RAF1 = target: T15, RAF1 (Homo sapiens, UniProt P04049); experiment: KinomeScan; assay type: binding; settings: read-out: % control
T15 construct: purchased DiscoveRx KINOMEscan

SNARK = target: T16, SNARK (Homo sapiens, UniProt Q9H093); experiment: KinomeScan; assay type: binding; settings: read-out: % control
T16 construct: purchased DiscoveRx KINOMEscan

CSNK1G1 = target: T17, CSNK1G1 (Homo sapiens, UniProt Q9HCP0); experiment: KinomeScan; assay type: binding; settings: read-out: % control
T17 construct: purchased DiscoveRx KINOMEscan

ERBB2 = target: T18, ERBB2 (Homo sapiens, UniProt P04626); experiment: KinomeScan; assay type: binding; settings: read-out: % control
T18 construct: purchased DiscoveRx KINOMEscan

PKMYT1 = target: T19, PKMYT1 (Homo sapiens, UniProt Q99640); experiment: KinomeScan; assay type: binding; settings: read-out: % control
T19 construct: purchased DiscoveRx KINOMEscan

CAMKK2 = target: T20, CAMKK2 (Homo sapiens, UniProt Q96RR4); experiment: KinomeScan; assay type: binding; settings: read-out: % control
T20 construct: purchased DiscoveRx KINOMEscan

PRKG2 = target: T21, PRKG2 (Homo sapiens, UniProt Q13237); experiment: KinomeScan; assay type: binding; settings: read-out: % control
T21 construct: purchased DiscoveRx KINOMEscan

p38-beta = target: T22, p38-beta (Homo sapiens, UniProt Q15759); experiment: KinomeScan; assay type: binding; settings: read-out: % control
T22 construct: purchased DiscoveRx KINOMEscan

STK35 = target: T23, STK35 (Homo sapiens, UniProt Q8TDR2); experiment: KinomeScan; assay type: binding; settings: read-out: % control
T23 construct: purchased DiscoveRx KINOMEscan

AXL = target: T24, AXL (Homo sapiens, UniProt P30530); experiment: KinomeScan; assay type: binding; settings: read-out: % control
T24 construct: purchased DiscoveRx KINOMEscan

p38-gamma = target: T25, p38-gamma (Homo sapiens, UniProt P53778); experiment: KinomeScan; assay type: binding; settings: read-out: % control
T25 construct: purchased DiscoveRx KINOMEscan

TNK1 = target: T26, TNK1 (Homo sapiens, UniProt Q13470); experiment: KinomeScan; assay type: binding; settings: read-out: % control
T26 construct: purchased DiscoveRx KINOMEscan

DAPK1 = target: T27, DAPK1 (Homo sapiens, UniProt P53355); experiment: KinomeScan; assay type: binding; settings: read-out: % control
T27 construct: purchased DiscoveRx KINOMEscan

S6K1 = target: T28, S6K1 (Homo sapiens, UniProt P23443); experiment: KinomeScan; assay type: binding; settings: read-out: % control
T28 construct: purchased DiscoveRx KINOMEscan

EPHB6 = target: T29, EPHB6 (Homo sapiens, UniProt O15197); experiment: KinomeScan; assay type: binding; settings: read-out: % control
T29 construct: purchased DiscoveRx KINOMEscan

ACVR1B = target: T30, ACVR1B (Homo sapiens, UniProt P36896); experiment: KinomeScan; assay type: binding; settings: read-out: % control
T30 construct: purchased DiscoveRx KINOMEscan

BaF3-IGF1R = experiment: Anti-proliferative effects, IGF1R transformed isogenic BaF3 cells; assay type: cell-based; settings: Mus musculus, read-out: IC50 (anti-proliferative; GI50)
MRCKA = target: T31, MRCKA (Homo sapiens, UniProt Q5VT25); experiment: KinomeScan; assay type: binding; settings: read-out: % control
T31 construct: purchased DiscoveRx KINOMEscan

KIT(V559D) = target: T32, KIT(V559D) (Homo sapiens, UniProt P10721, V559D); experiment: KinomeScan; assay type: binding; settings: read-out: % control
T32 construct: purchased DiscoveRx KINOMEscan

CAMK4 = target: T33, CAMK4 (Homo sapiens, UniProt Q16566); experiment: KinomeScan; assay type: binding; settings: read-out: % control
T33 construct: purchased DiscoveRx KINOMEscan

FLT3 = target: T34, FLT3 (Homo sapiens, UniProt P36888); experiment: KinomeScan; assay type: binding; settings: read-out: % control
T34 construct: purchased DiscoveRx KINOMEscan

GRK2 = target: T35, GRK2 (Homo sapiens, UniProt P25098); experiment: KinomeScan; assay type: binding; settings: read-out: % control
T35 construct: purchased DiscoveRx KINOMEscan

NDR1 = target: T36, NDR1 (Homo sapiens, UniProt Q15208); experiment: KinomeScan; assay type: binding; settings: read-out: % control
T36 construct: purchased DiscoveRx KINOMEscan

T33 sequence (Q16566 whole entry): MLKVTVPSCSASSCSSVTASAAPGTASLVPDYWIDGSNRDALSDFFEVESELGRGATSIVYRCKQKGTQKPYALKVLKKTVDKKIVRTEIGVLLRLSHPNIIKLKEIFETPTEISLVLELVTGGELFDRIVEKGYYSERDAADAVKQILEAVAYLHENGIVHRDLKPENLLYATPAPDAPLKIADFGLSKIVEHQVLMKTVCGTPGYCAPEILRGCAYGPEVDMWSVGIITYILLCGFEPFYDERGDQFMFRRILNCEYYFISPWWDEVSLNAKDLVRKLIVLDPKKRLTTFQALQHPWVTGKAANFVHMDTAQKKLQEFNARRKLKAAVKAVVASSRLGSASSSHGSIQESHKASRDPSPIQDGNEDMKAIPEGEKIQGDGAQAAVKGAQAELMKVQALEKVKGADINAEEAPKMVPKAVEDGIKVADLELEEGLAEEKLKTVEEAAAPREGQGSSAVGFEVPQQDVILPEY
T19 sequence (Q99640 whole entry): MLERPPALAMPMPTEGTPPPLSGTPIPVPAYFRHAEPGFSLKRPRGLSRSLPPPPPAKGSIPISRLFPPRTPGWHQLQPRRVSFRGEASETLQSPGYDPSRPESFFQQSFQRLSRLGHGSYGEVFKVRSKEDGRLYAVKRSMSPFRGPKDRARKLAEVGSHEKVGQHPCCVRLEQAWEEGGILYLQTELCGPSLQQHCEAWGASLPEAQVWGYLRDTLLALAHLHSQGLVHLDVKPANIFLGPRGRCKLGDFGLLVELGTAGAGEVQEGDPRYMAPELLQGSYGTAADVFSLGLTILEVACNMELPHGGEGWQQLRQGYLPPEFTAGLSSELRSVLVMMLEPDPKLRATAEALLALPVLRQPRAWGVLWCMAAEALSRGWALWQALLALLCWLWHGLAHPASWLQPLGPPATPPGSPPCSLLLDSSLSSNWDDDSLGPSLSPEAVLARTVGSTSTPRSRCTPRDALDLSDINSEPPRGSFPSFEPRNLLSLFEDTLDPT
T30 sequence (P36896 24-505): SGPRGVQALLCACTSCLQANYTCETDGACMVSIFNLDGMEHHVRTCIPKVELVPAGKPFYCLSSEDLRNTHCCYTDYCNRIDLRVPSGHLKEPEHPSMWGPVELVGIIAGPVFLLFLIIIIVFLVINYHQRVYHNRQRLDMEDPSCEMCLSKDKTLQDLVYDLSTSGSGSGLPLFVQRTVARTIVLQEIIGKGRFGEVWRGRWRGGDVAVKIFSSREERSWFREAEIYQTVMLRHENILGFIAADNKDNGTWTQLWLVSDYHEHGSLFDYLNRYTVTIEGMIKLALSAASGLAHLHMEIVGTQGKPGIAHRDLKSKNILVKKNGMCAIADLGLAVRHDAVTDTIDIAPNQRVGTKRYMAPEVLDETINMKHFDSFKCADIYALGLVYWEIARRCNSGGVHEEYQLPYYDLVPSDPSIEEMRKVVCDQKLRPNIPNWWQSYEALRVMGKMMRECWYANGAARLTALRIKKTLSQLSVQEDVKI
T26 sequence (Q13470 whole entry): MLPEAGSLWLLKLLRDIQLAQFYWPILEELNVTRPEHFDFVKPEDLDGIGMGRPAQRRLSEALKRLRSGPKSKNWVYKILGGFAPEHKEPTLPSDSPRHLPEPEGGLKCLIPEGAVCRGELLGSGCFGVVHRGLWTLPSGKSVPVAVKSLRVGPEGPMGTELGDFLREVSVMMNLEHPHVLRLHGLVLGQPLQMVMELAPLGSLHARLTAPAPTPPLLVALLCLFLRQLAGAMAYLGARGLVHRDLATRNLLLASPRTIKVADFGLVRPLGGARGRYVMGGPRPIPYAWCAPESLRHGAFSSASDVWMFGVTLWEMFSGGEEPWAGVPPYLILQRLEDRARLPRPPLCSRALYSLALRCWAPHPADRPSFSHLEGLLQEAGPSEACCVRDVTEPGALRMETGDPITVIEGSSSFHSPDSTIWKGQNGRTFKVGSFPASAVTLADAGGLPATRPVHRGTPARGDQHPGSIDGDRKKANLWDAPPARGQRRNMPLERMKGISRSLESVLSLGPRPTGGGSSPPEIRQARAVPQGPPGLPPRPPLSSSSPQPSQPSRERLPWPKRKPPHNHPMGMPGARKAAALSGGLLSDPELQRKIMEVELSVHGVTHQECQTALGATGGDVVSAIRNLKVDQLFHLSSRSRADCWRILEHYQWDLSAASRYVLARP
T9 sequence (P54753 34-998): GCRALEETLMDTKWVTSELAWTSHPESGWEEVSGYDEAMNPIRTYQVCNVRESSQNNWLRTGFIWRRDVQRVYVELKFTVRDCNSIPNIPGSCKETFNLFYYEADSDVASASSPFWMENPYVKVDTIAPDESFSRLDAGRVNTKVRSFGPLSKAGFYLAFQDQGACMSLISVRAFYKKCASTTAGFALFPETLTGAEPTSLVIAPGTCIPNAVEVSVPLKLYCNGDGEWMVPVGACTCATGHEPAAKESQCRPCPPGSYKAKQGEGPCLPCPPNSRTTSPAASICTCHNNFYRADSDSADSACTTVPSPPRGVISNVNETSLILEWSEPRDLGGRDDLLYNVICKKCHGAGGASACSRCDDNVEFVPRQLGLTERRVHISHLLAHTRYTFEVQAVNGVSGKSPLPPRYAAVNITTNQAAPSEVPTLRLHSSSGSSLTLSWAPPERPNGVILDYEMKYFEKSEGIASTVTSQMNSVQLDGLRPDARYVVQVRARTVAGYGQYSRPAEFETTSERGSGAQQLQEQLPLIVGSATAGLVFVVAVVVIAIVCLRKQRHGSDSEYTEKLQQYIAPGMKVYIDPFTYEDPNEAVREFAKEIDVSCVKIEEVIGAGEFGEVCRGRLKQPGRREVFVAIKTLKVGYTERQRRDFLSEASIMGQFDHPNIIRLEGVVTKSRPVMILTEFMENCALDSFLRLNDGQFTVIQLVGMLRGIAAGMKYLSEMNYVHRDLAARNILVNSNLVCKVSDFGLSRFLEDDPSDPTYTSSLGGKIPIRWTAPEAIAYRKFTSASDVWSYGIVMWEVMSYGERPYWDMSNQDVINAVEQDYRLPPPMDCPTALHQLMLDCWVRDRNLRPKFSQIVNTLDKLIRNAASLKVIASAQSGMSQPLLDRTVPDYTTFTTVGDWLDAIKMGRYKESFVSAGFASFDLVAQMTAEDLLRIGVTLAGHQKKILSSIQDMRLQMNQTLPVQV
T23 sequence (Q8TDR2 whole entry): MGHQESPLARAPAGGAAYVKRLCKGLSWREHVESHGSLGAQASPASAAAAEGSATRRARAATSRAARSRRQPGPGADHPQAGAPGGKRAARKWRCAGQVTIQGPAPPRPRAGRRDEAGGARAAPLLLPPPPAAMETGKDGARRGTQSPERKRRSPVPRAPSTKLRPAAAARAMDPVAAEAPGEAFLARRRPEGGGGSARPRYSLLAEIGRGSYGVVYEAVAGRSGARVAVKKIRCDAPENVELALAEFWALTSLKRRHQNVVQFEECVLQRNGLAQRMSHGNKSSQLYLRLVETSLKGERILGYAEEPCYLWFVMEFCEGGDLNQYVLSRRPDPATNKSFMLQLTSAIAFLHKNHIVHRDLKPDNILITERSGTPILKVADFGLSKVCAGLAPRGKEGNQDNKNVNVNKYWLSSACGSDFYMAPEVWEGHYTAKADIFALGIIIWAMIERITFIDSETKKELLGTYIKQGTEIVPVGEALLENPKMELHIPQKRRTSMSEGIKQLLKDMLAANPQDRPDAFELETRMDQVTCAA
T12 sequence (P52333 822-1124 limits assumed): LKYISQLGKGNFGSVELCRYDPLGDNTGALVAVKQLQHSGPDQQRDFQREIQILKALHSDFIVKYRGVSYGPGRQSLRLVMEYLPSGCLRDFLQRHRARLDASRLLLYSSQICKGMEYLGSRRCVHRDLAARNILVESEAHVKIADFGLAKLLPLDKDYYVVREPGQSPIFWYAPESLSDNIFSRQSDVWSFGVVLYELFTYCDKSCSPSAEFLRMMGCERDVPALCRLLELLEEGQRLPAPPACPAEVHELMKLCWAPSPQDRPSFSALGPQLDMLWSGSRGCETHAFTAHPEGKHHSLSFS
T3 sequence (P48736 whole entry): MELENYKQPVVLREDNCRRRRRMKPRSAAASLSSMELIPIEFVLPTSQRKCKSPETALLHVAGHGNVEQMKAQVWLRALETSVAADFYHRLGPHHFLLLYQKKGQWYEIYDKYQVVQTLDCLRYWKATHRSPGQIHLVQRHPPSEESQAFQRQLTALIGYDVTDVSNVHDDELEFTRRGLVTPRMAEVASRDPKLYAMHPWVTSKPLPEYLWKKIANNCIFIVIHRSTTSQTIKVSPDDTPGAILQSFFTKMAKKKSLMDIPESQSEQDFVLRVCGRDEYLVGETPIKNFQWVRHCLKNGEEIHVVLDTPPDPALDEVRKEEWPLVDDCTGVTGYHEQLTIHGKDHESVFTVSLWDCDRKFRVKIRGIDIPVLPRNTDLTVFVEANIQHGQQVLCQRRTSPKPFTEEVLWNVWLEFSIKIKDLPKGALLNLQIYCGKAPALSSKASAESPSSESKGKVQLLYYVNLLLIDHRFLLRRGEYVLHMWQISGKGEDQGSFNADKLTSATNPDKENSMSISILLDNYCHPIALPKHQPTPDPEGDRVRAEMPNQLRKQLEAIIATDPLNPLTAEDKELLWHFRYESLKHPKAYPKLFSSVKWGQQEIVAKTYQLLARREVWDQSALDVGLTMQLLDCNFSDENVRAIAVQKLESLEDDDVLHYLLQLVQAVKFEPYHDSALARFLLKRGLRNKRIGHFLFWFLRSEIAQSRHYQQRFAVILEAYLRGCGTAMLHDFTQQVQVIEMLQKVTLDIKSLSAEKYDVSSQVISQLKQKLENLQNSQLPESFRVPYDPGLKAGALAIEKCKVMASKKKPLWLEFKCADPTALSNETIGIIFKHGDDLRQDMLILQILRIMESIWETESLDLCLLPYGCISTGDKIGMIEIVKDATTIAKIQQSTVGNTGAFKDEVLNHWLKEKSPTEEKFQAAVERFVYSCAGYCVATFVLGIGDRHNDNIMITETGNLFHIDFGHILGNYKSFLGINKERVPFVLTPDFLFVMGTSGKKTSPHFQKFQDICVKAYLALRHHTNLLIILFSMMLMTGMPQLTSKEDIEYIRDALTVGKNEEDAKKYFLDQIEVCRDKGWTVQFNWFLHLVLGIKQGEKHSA

C=CC(=O)N1CCC[C@@H](n2nc(-c3ccc(OCc4cccc(C)n4)c(Cl)c3)c3c(N)ncnc32)C1 [CHMFL-EGFR-26] was tested, and the remaining binding at 1 µM (MST3) was 39%, the remaining binding at 1 µM (CDK2) was 100% and the remaining binding at 1 µM (PIK3CG) was 100%. For the same compound, the remaining binding at 1 µM (ERK5) was 100%, the remaining binding at 1 µM (STK36) was 92% and the remaining binding at 1 µM (PRKG1) was 14%. For the same compound, the “fold more potent than AZD9291” value (H1975 (EGFRL858R/T790M); H1975 GI50) was “about 170 fold”, the GI50 (H1975 (EGFRL858R/T790M); Homo sapiens, NCI-H1975, H1975 (EGFRL858R/T790M), 72 hours, triplet testing) was less than 0.0003 µM and the GI50 (CHO) was greater than 10 µM. It also gave a remaining binding at 1 µM (CLK4) of 100%, a remaining binding at 1 µM (TNIK) of 11% and a remaining binding at 1 µM (EPHB3) of 100%. For the same compound, the remaining binding at 1 µM (NEK3) was 83%, the remaining binding at 1 µM (GRK1) was 88% and the remaining binding at 1 µM [1] was 0.7%. For the same compound, the remaining binding at 1 µM (FGR) was 86%, the remaining binding at 1 µM (CAMKK1) was 88% and the remaining binding at 1 µM (RAF1) was 97%. For the same compound, the remaining binding at 1 µM (SNARK) was 25%, the remaining binding at 1 µM (CSNK1G1) was 87% and the remaining binding at 1 µM (ERBB2) was 0%. It also gave a remaining binding at 1 µM (PKMYT1) of 92%, a remaining binding at 1 µM (CAMKK2) of 75% and a remaining binding at 1 µM (PRKG2) of 100%. The remaining binding at 1 µM (p38-beta) was 100%, the remaining binding at 1 µM (STK35) was 23% and the remaining binding at 1 µM (AXL) was 83%. For the same compound, the remaining binding at 1 µM (p38-gamma) was 100%, the remaining binding at 1 µM (TNK1) was 64% and the remaining binding at 1 µM (DAPK1) was 77%. It also gave a remaining binding at 1 µM (S6K1) of 100%, a remaining binding at 1 µM (EPHB6) of 82% and a remaining binding at 1 µM (ACVR1B) of 30%. For the same compound, the IC50 (BaF3-IGF1R) was 3.6 µM, the remaining binding at 1 µM (MRCKA) was 64% and the remaining binding at 1 µM (KIT(V559D)) was 100%. The remaining binding at 1 µM (CAMK4) was 100%, the remaining binding at 1 µM (FLT3) was 95% and the remaining binding at 1 µM (GRK2) was 99%. The remaining binding at 1 µM (NDR1) was 71%.
